Converted amounts (≈) assume the structure as drawn. Where two headings read alike, the source gives them in different places.
Tests used:
Huh 7.5 cells = experiment: MTT assay, non-infected cells; type: cell-based; details: Homo sapiens, Huh7.5, 120 h
U-2 OS cells = experiment: MTT assay; type: cell-based; details: Homo sapiens, U2OS, 120 h
Acyrthosiphon pisum = experiment: Insecticidal activity, direct application to the posterior segment of adult insects; type: in vivo; details: for Death rate: positive control, 0.5 microliter of 0.01 μg/mL in acetone, after one hour; for Death rate / Death rate at 0.5 μg/insect: 20 insects; for Death rate at 0.5 μg/insect: adult A. pisum, 0.5 μg/insect in acetone, survival after one hour
HCoV229E = experiment: cells; type: cell-based, human pathogenic coronavirus HCoV229E; details: for IC50: HCoV229E replication in Huh-7.5 cells; for factor between cytotoxic activity (IC50 Huh-7.5) and antiviral activity (IC50 HCoV229E): IC50 Huh-7.5 versus IC50 HCoV229E
Bacillus subtilis DSM-10 = experiment: Antimicrobial MIC determination, serial dilution in 96 well plates; type: cell-based
[1] = system: Staphylococcus aureus Newman; experiment: as above; type: cell-based; details: 24 h at 37 °C
[2] = system: Candida albicans DSM-1665; experiment: as above; type: cell-based; details: DSM1665
Pichia anomala = experiment: as above; type: cell-based; details: Hansenula anomala
Escherichia coli BW25113 = experiment: as above; type: cell-based; details: 24 h at 37 °C
[3] = system: Escherichia coli ΔacrB JW0451-2; experiment: as above; type: cell-based; details: 24 h
[4] = system: Pseudomonas aeruginosa PA14; experiment: as above; type: cell-based; details: 24 h at 37 °C
[5] = system: Mycobacterium smegmatis mc2 155; experiment: as above; type: cell-based; details: Mycolicibacterium smegmatis, MC2155
[6] = target: SARS-CoV-2 RdRp complex (Nsp7, Nsp8, Nsp12) (Severe acute respiratory syndrome coronavirus 2, UniProt P0DTD1); experiment: biochemical; details: full template-length RNA product
Huh-7.5 host cells = Huh-7.5 host cells in the antiviral assay
[7] = DSM10, 24 h at 37 °C, read-out: MIC
[8] = Homo sapiens, Huh7.5, 48 h at 33 °C
[9] = non-infected Huh 7.5 cells, 5 days at 37 °C

| Structure (SMILES) | MIC (Bacillus subtilis DSM-10; 24 h at 37 °C) | MIC (Bacillus subtilis DSM-10; [7]) | MIC [1] | MIC [2] | MIC (Pichia anomala) | MIC (Escherichia coli BW25113) | MIC [3] | MIC [4] | MIC [5] | IC50 (HCoV229E; [8]) | IC50 [6] | IC50 (Huh 7.5 cells; [9]) | IC50 (U-2 OS cells; 5 days at 37 °C) | Death rate at 0.5 μg/insect (Acyrthosiphon pisum) | factor between cytotoxic activity (IC50 Huh-7.5) and antiviral activity (IC50 HCoV229E) (HCoV229E) | other results |
| --- | --- | --- | --- | --- | --- | --- | --- | --- | --- | --- | --- | --- | --- | --- | --- | --- |
| COc1cccc2c1C(=O)c1c(O)c3c(c(O)c1C2=O)C[C@@](O)(C(=O)CO)C[C@@H]3O[C@H]1C[C@H](N)[C@H](O)[C@H](C)O1 [Doxorubicin, reference compound] | – | – | – | – | – | – | – | – | – | – | – | – | – | – | – | IC50 (Huh 7.5 cells; positive control, Huh 7.5 cells, 5 days): 0.037 µM; IC50 (U-2 OS cells; positive control, 5 days): 0.015 µM |
| O=[N+]([O-])NC1=NCCN1Cc1ccc(Cl)nc1 [Imidacloprid, reference compound] | – | – | – | – | – | – | – | – | – | – | – | – | – | – | – | Death rate (Acyrthosiphon pisum): 100 (Imidacloprid) %; Death rate (Acyrthosiphon pisum; listed as imidacloprid): 100% |
| CCC(CC)COC(=O)[C@H](C)N[P@](=O)(OC[C@H]1O[C@@](C#N)(c2ccc3c(N)ncnn23)[C@H](O)[C@@H]1O)Oc1ccccc1 [Remdesivir, reference compound] | – | – | – | – | – | – | – | – | – | – | – | – | – | – | – | IC50 (HCoV229E; positive control, 48 h): 0.0056 µM |
| CC(C)=CCC/C(C)=C/CC/C(C)=C/Cn1c(/C=C(\C)CC/C=C(\C)CCC=C(C)C)nc2cc(C)c(C)cc21 [Sandacrabin A] | 32 µg/mL (≈ 59.2 µM) | 32 µg/mL (≈ 59.2 µM) | 128 µg/mL (≈ 237 µM) | > 64 µg/mL | > 64 µg/mL | > 64 µg/mL | > 64 µg/mL | > 64 µg/mL | > 64 µg/mL | > 10 µM | 108 µM | > 37 µM | > 37 µM | 10% | – | antiviral activity, effect on viral replication (in words) (HCoV229E; cells infected with HCoV229E): did not show any effect on viral replication; minimal insecticidal concentration (Acyrthosiphon pisum; dilution series 5–0.05 μg per insect, test group of three insects): > 5 μg/insect |
| CC(C)=CCC/C(C)=C/CC/C(C)=C/Cn1c[n+](C/C=C(\C)CC/C=C(\C)CCC=C(C)C)c2cc(C)c(C)cc21 [Sandacrabin B] | 64 µg/mL | 64 µg/mL | 64 to 128 µg/mL | > 64 µg/mL | > 64 µg/mL | > 64 µg/mL | > 64 µg/mL | > 64 µg/mL | > 64 µg/mL | 0.18 µM | 3.5 µM | 0.7 µM | 0.51 µM | 100% | 3–4 fold | cytotoxic effects on host cells (in words) (Huh-7.5 host cells): cytotoxic effects at the highest test concentration |
| CC(C)=CCC/C(C)=C/CC/C(C)=C/Cn1c(C)[n+](C/C=C(\C)CC/C=C(\C)CCC=C(C)C)c2cc(C)c(C)cc21 [Sandacrabin C] | 128 µg/mL | 128 µg/mL | 64 to 128 µg/mL | > 64 µg/mL | > 64 µg/mL | > 64 µg/mL | > 64 µg/mL | > 64 µg/mL | > 64 µg/mL | 0.34 µM | 6.8 µM | 3.61 µM | 1.22 µM | 90% | 11 fold | cytotoxic effects on host cells (in words) (Huh-7.5 host cells): cytotoxic effects at the highest test concentration |
| CC(C)=CCC/C(C)=C/CC/C(C)=C/Cn1cnc2cc(C)c(C)cc21 [Sandacrabin D] | 64 µg/mL (≈ 183 µM) | 64 µg/mL (≈ 183 µM) | 64 µg/mL (≈ 183 µM) | > 64 µg/mL | > 64 µg/mL | > 64 µg/mL | > 64 µg/mL | > 64 µg/mL | 64 µg/mL (≈ 183 µM) | 1.64 µM | 85 µM | 4.63 µM | 16.9 µM | 100% | 3–4 fold | – |
| CC(C)=CCC/C(C)=C/CC/C(C)=C/Cn1c(C)nc2cc(C)c(C)cc21 [Sandacrabin E] | 64 µg/mL (≈ 176 µM) | 64 µg/mL (≈ 176 µM) | 64 µg/mL (≈ 176 µM) | > 64 µg/mL | > 64 µg/mL | > 64 µg/mL | > 64 µg/mL | > 64 µg/mL | 64 µg/mL (≈ 176 µM) | 1.91 µM | 43 µM | 6.72 µM | 13.7 µM | 90% | 3–4 fold | – |
| CN[C@H](CC(C)C)C(=O)N[C@H]1C(=O)N[C@@H](CC(N)=O)C(=O)N[C@H]2C(=O)N[C@H]3C(=O)N[C@H](C(=O)N[C@H](C(=O)O)c4cc(O)cc(O)c4-c4cc3ccc4O)[C@H](O)c3ccc(c(Cl)c3)Oc3cc2cc(c3O[C@@H]2O[C@H](CO)[C@@H](O)[C@H](O)[C@H]2O[C@H]2C[C@](C)(N)[C@H](O)[C@H](C)O2)Oc2ccc(cc2Cl)[C@H]1O [Vancomycin, reference compound] | – | 0.1 to 0.2 µg/mL (≈ 0.069 to 0.138 µM) | – | – | – | – | – | – | – | – | – | – | – | – | – | – |

Reference: paper PMC9306752, “Sandacrabins – Structurally Unique Antiviral RNA Polymerase Inhibitors from a Rare Myxobacterium” (Chemistry (Weinheim an Der Bergstrasse, Germany), 2022)
